# Where a SMILES comes first, the peptide text is derived from it. [ ]: non-standard residue; d: D form. ξ: configuration not given here. ξAze = O=C(O)C1CCN1
# How the values were obtained:
# CUMS model mice [1] = test: Tail suspension test in CUMS model mice, intravenous administration; format: in vivo, C57/B6 mice; conditions: single i.v. dose 100 mg/kg, test 2 hours later (FIG. 4)
# Description: (§1) 6-8-week-old C57/B6 mice (purchased from: Jinan Pengyue Laboratory Animal Breeding Co., Ltd.) were used to establish a 28-day chronic unpredictable mild stress (CUMS) animal model, and an experimental procedure referred to document description^[1,2]. After one week of acclimatization, seven experiments, including food and water deprivation, foot shock, wet bedding, cage tilting, restraint stress, shaker stress, and olfactory stimulation, were randomly applied to the animals within one week to achieve unpredictability, and the stimulation was continued for 4 consecutive weeks. The successful establishment of the model was verified by an open field test (OFT)^[3], and then pharmacodynamic evaluation was carried out. The animals were divided into a blank control group (Control), a model group (Model), a vehicle control group (Vehicle), a fluoxetine control group and a compound group in the experiment. The test compound was intravenously (i.v.) administered once at a dose of 100 mg/kg, a tail suspension test (TST) and a forced swimming test (FST)^[4,5] were carried out 2 hours later to evaluate the depression of the mice, and prolonged immobility time in the TST and the FST indicated behavioral despair of the mice. After summary statistics of data, SPSS data statistics software was used for analysis, and Graph Pad software was used for graph generation based on SPSS analysis results.
# CUMS model mice [2] = test: Forced swimming test in CUMS model mice, intravenous administration; format: in vivo, C57/B6 mice; conditions: single i.v. dose 100 mg/kg, test 2 hours later (FIG. 3)
# Description: as §1
# [3] = Mouse pharmacokinetic detection; format: in vivo; conditions: CD1 mice; for AUC(0-t): oral gavage 10 mg/kg; for bioavailability: oral gavage 10 mg/kg vs intravenous 10 mg/kg
# Description: The detection was carried out in 6-8-week-old CD1 mice (purchased from: Speifu (Beijing) Biotechnology Co., Ltd.). […] The concentration of the compound in a plasma sample was analyzed by LC-MS/MS. Pharmacokinetic calculation was carried out by using WinNonlin (Phoenix™, Version 8.3) or other similar software. The following pharmacokinetic parameters were calculated based on plasma concentration and time data: Oral administration: AUClast, bioavailability (F). Statistical calculation was carried out on the above parameter data. Table 3 Pharmacokinetic data of some compounds administered orally in mice
# CUMS model mice [4] = test: Tail suspension test in CUMS model mice, oral administration; format: in vivo, C57/B6 mice; conditions: single oral dose 25 mg/kg, test 2 hours later (FIG. 1, FIG. 2)
# Description: as §1, with “fluoxetine control group, ZZL-7 experimental group and” for “fluoxetine control group and”, “compound was orally administered once” for “compound was intravenously (i.v.) administered once”, “dose of 25 mg/kg, a” for “dose of 100 mg/kg, a”, “suspension test (TST)^[4,5] was carried out” for “suspension test (TST) and a forced swimming test (FST)^[4,5] were carried out”, “the TST indicated behavioral” for “the TST and the FST indicated behavioral”
# [5] = Rat pharmacokinetic detection; format: in vivo; conditions: plasma, male SD rats
# Description: The detection was carried out in 6-8-week-old male SD rats (purchased from:SPF (Beijing) Biotechnology Co., Ltd.). A test compound was dissolved in a solution containing 10% DMSO, 15% Solutol HS and 75% (aqueous solution of 10% hydroxypropyl-β-cyclodextrin), and administered via intravenous injection (10 mg/kg) or oral gavage (15 mg/kg). A concentration of the compound in a plasma sample was analyzed by LC-MS/MS. Pharmacokinetic calculation was carried out by using WinNonlin (Phoenix™, Version 8.3). The following pharmacokinetic parameters were calculated based on plasma concentration and time data: Oral administration: AUClast, bioavailability (F). Statistical calculation was carried out on the above parameter data. Table 4 Pharmacokinetic data of some compounds administered orally in rats
# [6] = Permeability detection in MDR1-MDCK II cell monolayer; format: in vitro ADME; conditions: dog, pH 7.4, MDR1-MDCK II cells, 2 µM, 2.5 hours; for Papp A→B at 2.5 h, 2 µM: apical to basolateral; for Papp B→A at 2.5 h, 2 µM: basolateral to apical
# Description: (§2) MDR1-MDCK II cells (imported from the Netherlands Cancer Institute) were seeded in a 96-well cell plate at a density of 3.33×10^5 cells/mL, and cultured in a carbon dioxide incubator for 4-7 days to form a cell monolayer. A Hank's balanced salt solution (HBSS, pH 7.40 ± 0.05) containing 10.0 mM 4-(2-hydroxyethyl)-1-piperazineethanesulfonic acid (HEPES) was used as a transport buffer. A DMSO stock solution of compound was diluted to 2 µM (DMSO < 1.0%) with the transport buffer, and added to the basolateral (B) side and apical (A) side respectively (N=2). The bidirectional (A-B and B-A) incubation concentration of Digoxin, a P-gp substrate, was 10 µM, and the unidirectional (A-B) incubateion concentrations of Nadolol, a low-permeability control, and Metoprolol, a high-permeability control, were 2 µM. The cell plate was incubated in a 5% CO2 cell incubator at 37°C and saturated humidity for 2.5 hours, then final samples from a receiver side and a donor side were collected, added with the transport buffer and a precipitant at an appropriate ratio, and analyzed by LC-MS/MS, and an apparent permeability coefficient, an efflux ratio and a solution recovery were calculated.
# (§3) After the transport experiment was completed, an integrity of the MDR1-MDCK II cell layer was detected by a lucifer yellow detection experiment. Residual solution in apical and basolateral wells was removed, and 75 µL of transport buffer containing 100 µM lucifer yellow was added to the apical wells and 250 µL of transport buffer was added to the basolateral wells respectively. The cell plate was incubated in a 5% CO2 cell incubator at 37 °C and saturated humidity for 30 minutes, then 20 µL of sample was taken from the apical side and mixed with 60 µL of transport buffer and 80 µL of sample was taken from the basolateral side. A relative fluorescence intensity was detected by a microplate reader at excitation/emission wavelengths of 425/528 nm, and the permeability of Lucifer Yellow was calculated.
# (§4) The apparent permeability coefficient (Papp), efflux ratio (ER) and %solution recovery were respectively calculated by following formulas: Papp = (VR)/(Area × Time) × ([drug]receiver)/([drug]initial,donor) = (VR)/(Area × Time) × (CR)/(C0) [formula] Efflux Ratio = (Papp (B−A))/(Papp (A−B)) [formula] %Solution Recovery = (CR × VR + CD × VD)/(C0 × VD) × 100 [formula]
# (§5) VR was the volume of solution in the receiver side (0.075 mL for the apical side and 0.25 mL for the basolateral side respectively), VD was the volume of solution in the donor side (0.075 mL for the apical side and 0.25 mL for the basolateral side respectively), CR was the peak area ratio of compound in the receiver side, CD was the peak area ratio of compound in the donor side, C0 was the initial peak area ratio of compound in the donor side, Area was the surface area (0.143 cm^2) of the cell monolayer, and Time was incubation time of 9000 seconds (150 minutes). Papp(B-A) and Papp(A-B) respectively referred to the apparent permeability coefficient from the basolateral side to the apical side and the apparent permeability coefficient from the apical side to the basolateral side.
# (§6) The permeability of Lucifer Yellow(%Lucifer Yellow) was calculated by the following formula: %Lucifer Yellow = (VBasolateral × RFUBasolateral)/(VApical × RFUApical + VBasolateral × RFUBasolateral) × 100 [formula]
# (§7) RFUApical and RFUBasolareral respectively referred to relative fluorescence intensities of lucifer yellow in the apical side and the basolateral side. VApical and VBasolateral respectively referred to loading volumes (0.075 mL and 0.25 mL respectively) in the apical side and the basolateral side. Table 2 Permeability data of some compounds
# MDR1-MDCK II cells = test: as above; format: in vitro ADME; conditions: permeability rank
# Description: as §2, §3, §4, §5, §6, §7
# [7] = Plasma stability determination; format: in vitro ADME; conditions: mouse
# Description: Mouse plasma (purchased from IPHASE, Batch No. 23B007) was thawed in a 37°C water bath, centrifuged to remove an upper clot, and the pH value was recorded as 7-8. An appropriate volume of stock solution of test compound in acetonitrile (at a concentration of 10 mM) was diluted with acetonitrile to 1 mM, so as to serve as a test drug solution. An appropriate volume of test drug solution was added to a corresponding volume of plasma and mixed uniformly, such that the concentration of the test compound in the incubation system was 5 µM, and the content of the organic solvent acetonitrile was 0.5%. 50 µL of mixed plasma was transferred into a 96-well plate (N=2), incubated at 37°C in a water bath for a designated time, and then added with 300 µL of internal standard-containing methanol solution to terminate the reaction. The reaction mixture was vortexed and centrifuged, and the supernatant was subjected to LC-MS/MS analysis. Propantheline and ZZL-7 were used as positive controls, and processed and tested under the same conditions as the test compound. A curve was plotted with the remaining percentage of the compound against incubation time to obtain a k value, and the half-life of each compound was calculated.
structure (smiles),measurement,setting,value
COC(=O)[C@@H](NC(=O)c1ccc[nH]1)C(C)C [A-1-7],immobility time in the tail suspension test,CUMS model mice [1],rapidly reverse the prolonged immobility time
same,immobility time in the forced swimming test,CUMS model mice [2],rapidly reverse the prolonged immobility time
same,AUC(0-t),[3]; in vivo,154 ng·h/mL
same,bioavailability,[3]; in vivo,27.3%
COC(=O)[C@@H](NC(=O)C1CCN1C(C)=O)C(C)C (some centres unmarked) [A-2-1] (Ac-[ξAze]-Val-OMe),immobility time in the tail suspension test,CUMS model mice [1],rapidly reverse the prolonged immobility time
same,immobility time in the forced swimming test,CUMS model mice [2],rapidly reverse the prolonged immobility time
same,AUC(0-t),[3]; plasma,3130 ng·h/mL
same,bioavailability,[3]; plasma,156%
[2H]C([2H])([2H])C(=O)N1CC[C@@H]1C(=O)N[C@H](c1ncco1)C(C)C [B-2-3],immobility time in the tail suspension test,CUMS model mice [4],rapidly reverse the prolonged immobility time
same,AUC(0-t),[5]; oral gavage 15 mg/kg,24300 ng·h/mL
same,bioavailability,[5]; oral gavage 15 mg/kg vs intravenous 10 mg/kg,66%
same,"Papp A→B at 2.5 h, 2 µM",[6],2.42 ×10⁻⁶ cm/s
same,"Papp B→A at 2.5 h, 2 µM",[6],3.22 ×10⁻⁶ cm/s
same,Rank Papp,MDR1-MDCK II cells,Moderate
same,AUC(0-t),[3]; plasma,10900 ng·h/mL
same,bioavailability,[3]; plasma,159%
CC(=O)N1CC[C@@H]1C(=O)N[C@H](c1ncco1)C(C)C [B-2-41],immobility time in the tail suspension test,CUMS model mice [4],rapidly reverse the prolonged immobility time
same,half-life at 5 µM,[7],> 289 min
same,"Papp A→B at 2.5 h, 2 µM",[6],4.07 ×10⁻⁶ cm/s
same,"Papp B→A at 2.5 h, 2 µM",[6],5.61 ×10⁻⁶ cm/s
same,Rank Papp,MDR1-MDCK II cells,Moderate
same,AUC(0-t),[3]; plasma,11600 ng·h/mL
same,bioavailability,[3]; plasma,90%

# Source: patent publication EP4818189A1, “NITROGEN-CONTAINING HETEROCYCLIC COMPOUND, AND PREPARATION METHOD AND USE THEREFOR” (Chengdu Di'ao Pharmaceutical Group Co., Ltd., priority 2023, dated 2025)
